Molecules are shown by their SMILES.

The values below come from publication PMC3561959 (Nucleic Acids Research, 2012).

In assay [1] the target is DBD-F^MBP (Homo sapiens, UniProt P27694). It counts as binding. Conditions: competitive titration, fluorescence anisotropy. On the technique in general: In fluorescence polarisation assays a small probe gives low polarisation when free and higher when bound to something large.
Assay [2] concerns the target RPA (Homo sapiens, UniProt P27694). The assay can be described thus: Helix destabilization assay. It counts as biochemical. Conditions: EMSA, dsDNA probe, 200 µM of each compound. In general terms: In EMSA bound probe runs differently from free probe, usually more slowly.

Sequence of DBD-F^MBP (P27694 1-168): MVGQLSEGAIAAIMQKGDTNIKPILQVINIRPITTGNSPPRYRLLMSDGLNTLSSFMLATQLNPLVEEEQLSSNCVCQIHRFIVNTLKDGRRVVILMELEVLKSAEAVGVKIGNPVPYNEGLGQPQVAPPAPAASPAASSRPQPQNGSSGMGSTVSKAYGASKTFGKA
Sequence of RPA (P27694 whole entry): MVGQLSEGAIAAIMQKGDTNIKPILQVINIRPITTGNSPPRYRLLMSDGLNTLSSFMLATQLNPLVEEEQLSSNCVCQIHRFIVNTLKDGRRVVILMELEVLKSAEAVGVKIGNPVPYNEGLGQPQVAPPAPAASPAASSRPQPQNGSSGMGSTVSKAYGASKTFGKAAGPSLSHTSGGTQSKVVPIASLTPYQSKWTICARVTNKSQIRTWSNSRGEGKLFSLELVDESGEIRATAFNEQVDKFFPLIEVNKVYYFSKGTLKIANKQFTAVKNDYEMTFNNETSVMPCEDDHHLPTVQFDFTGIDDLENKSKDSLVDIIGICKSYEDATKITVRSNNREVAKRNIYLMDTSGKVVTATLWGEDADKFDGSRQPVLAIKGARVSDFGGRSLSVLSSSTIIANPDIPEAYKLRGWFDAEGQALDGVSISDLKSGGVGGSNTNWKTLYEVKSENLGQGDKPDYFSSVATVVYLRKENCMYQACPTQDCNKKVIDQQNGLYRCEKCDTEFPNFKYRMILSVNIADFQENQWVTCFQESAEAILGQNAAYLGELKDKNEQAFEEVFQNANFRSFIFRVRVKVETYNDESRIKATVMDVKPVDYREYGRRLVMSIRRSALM
Sequence of RPA (P15927 whole entry partner): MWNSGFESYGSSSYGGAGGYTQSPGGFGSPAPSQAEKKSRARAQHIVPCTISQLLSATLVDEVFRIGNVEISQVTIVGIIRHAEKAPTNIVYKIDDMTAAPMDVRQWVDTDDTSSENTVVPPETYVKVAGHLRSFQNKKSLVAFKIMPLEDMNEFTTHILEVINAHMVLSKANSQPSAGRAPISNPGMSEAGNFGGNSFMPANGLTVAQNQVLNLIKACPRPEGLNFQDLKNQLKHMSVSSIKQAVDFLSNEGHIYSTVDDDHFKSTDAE
Sequence of RPA (P35244 whole entry partner): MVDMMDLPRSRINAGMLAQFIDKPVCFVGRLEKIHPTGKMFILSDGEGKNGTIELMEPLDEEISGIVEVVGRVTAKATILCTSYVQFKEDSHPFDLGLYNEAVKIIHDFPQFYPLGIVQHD

As to `O=C(O)C1CCC(C(=O)O)CC1` (stereo not shown) [1,4-cyclohexanedicarboxylic acid], the “competition with X-rhodamine-labelled p53TAD2 for binding to DBD-F^MBP” value in assay [1] is recorded as “no evidence of binding”. Moreover, the “inhibition of helix destabilization by RPA” value in assay [2] is reported as “no effect”.
On the same counts, the results for `O=C(O)CCC(=O)O` [succinic acid] are “no evidence of binding” and “no effect”.
